These results are taken from patent publication US20140005163A1 (NOVARTIS AG, priority 2010, published 2014).

One assay addresses T1, PI3K alpha (Homo sapiens, UniProt P42336).
T1 construct: p85(iSH2) fusion partner (see partner chain) (N); His tag (C); made in house; host or cells: baculovirus; Tn5 (Trichoplusia ni) or TiniPro insect cells
Nature of the assay: PI3K alpha kinase assay (Kinase-Glo luminescence). The format is biochemical. In short, it runs like this: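 Enzyme 10 nM PI3Kα EMV B1075; ATP 1 μM; PI 10 μg/mL; Tris-HCl pH 7.5 10 mM, MgCl2 3 mM, NaCl 50 mM, CHAPS 0.05%, DTT 1 mM; 60 min RT; Kinase-Glo luminescence; 4-parameter IC50 fit, 8 concentrations, single points.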
In general terms: Kinase-Glo reads ATP consumption through a luciferase reaction.

For another assay, the target named is T2, PI3K delta (Homo sapiens, UniProt O00329).
T2 construct: for the full-length p110-d subunit are generated and fused by overlapping PCR; p85(iSH2) fusion partner (see partner chain) (N); His tag (C); made in house; host or cells: baculovirus; Tn5 (Trichoplusia ni) or TiniPro insect cells
Nature of the assay: PI3K delta kinase assay (Kinase-Glo luminescence). The format is biochemical. In short, it runs like this: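 Lipid kinase activity of a His-tagged p110δ full-length/p85 iSH2 fusion (10 nM) toward bovine liver phosphatidylinositol (10 μg/mL) at 1 μM ATP, pH 7.5, 60 min, room temperature. ATP consumption is quantified by luciferase-based luminescence. Four-parameter logistic fitting gives IC50.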

For a further assay, the target named is T3, mTOR (Homo sapiens, UniProt P42345).
T3 construct: purchased Invitrogen Corporation (Carlsbad/CA, USA) PV4753
Nature of the assay: Biochemical assay for m-TOR by TR-FRET. As to conditions: 8 μM ATP, 400 nM GFP-4EBP1, 0.5 nM mTOR. In short, it runs like this:
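mTOR (0.5 nM final) phosphorylated GFP-4EBP1 (400 nM final) with ATP (8 μM final) at rt in 50 mM HEPES pH 7.5, 10 mM MnCl2, 50 mM NaCl, 1 mM EGTA, 1 mM DTT. EDTA stop with Tb3+-anti-p4EBP1 [pThr46] antibody (0.5 nM); TR-FRET read 15 min later.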
(Time-resolved FRET reads energy transfer from a long-lived donor to a nearby acceptor.)

For assay [1], the system named is S6 Ribosomal Protein phosphorylation Ser235/236 in TSC1 null mouse embryo fibroblast (MEF) cells. Put plainly: Reverse protein array assay, S6 Ribosomal Protein phosphorylation Ser235/236 in TSC1 null MEF cells. It counts as cell-based. As to conditions: 1 h, pS6 ribosomal protein Ser235/236, 60 minutes incubation, read-out: p-S6 IC50. In outline: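 TSC1−/− MEFs, seeded and held ≥20 h at 37 °C/5% CO2, were exposed to 8-step serial compound dilutions (0.02% DMSO final; DMSO vehicle control) for 60 min at 37 °C. Cells were then lysed on ice for 10 min and lysates spotted onto reverse protein array chips.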

Broadly, the IC50 is the point on the concentration scale where inhibition reaches its midpoint.

T1 sequence (P42336 with tags, fused parts or gaps limits assumed): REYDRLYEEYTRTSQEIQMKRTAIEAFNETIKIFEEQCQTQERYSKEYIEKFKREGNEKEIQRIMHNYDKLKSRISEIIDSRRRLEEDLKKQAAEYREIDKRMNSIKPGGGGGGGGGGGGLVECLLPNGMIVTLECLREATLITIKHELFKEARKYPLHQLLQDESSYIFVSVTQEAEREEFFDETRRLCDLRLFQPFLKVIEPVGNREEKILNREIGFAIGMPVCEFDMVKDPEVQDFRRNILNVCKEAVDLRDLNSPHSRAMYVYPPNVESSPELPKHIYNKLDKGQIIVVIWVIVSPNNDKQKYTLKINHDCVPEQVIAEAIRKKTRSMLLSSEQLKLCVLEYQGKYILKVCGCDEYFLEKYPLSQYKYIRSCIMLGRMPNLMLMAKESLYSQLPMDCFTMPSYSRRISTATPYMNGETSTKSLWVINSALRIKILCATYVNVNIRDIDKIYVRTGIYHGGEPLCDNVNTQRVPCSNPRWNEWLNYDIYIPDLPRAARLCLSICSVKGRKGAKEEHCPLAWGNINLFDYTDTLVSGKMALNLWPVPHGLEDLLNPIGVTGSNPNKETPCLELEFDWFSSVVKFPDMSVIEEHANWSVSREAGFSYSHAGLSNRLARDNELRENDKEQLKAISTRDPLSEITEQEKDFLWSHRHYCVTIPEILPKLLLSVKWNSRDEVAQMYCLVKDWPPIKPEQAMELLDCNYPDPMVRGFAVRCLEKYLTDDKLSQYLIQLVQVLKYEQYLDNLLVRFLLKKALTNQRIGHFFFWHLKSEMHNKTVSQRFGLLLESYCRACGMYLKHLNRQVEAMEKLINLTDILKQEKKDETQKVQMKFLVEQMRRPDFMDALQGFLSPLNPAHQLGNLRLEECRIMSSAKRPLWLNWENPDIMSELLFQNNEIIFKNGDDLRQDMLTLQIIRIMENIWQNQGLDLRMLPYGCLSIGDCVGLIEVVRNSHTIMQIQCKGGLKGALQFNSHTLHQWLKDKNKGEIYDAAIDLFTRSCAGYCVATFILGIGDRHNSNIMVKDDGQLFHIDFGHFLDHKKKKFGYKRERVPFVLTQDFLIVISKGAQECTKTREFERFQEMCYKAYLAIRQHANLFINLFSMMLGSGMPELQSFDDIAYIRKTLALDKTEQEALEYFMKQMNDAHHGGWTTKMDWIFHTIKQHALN
T3 sequence (P42345 1360-2549 limits assumed): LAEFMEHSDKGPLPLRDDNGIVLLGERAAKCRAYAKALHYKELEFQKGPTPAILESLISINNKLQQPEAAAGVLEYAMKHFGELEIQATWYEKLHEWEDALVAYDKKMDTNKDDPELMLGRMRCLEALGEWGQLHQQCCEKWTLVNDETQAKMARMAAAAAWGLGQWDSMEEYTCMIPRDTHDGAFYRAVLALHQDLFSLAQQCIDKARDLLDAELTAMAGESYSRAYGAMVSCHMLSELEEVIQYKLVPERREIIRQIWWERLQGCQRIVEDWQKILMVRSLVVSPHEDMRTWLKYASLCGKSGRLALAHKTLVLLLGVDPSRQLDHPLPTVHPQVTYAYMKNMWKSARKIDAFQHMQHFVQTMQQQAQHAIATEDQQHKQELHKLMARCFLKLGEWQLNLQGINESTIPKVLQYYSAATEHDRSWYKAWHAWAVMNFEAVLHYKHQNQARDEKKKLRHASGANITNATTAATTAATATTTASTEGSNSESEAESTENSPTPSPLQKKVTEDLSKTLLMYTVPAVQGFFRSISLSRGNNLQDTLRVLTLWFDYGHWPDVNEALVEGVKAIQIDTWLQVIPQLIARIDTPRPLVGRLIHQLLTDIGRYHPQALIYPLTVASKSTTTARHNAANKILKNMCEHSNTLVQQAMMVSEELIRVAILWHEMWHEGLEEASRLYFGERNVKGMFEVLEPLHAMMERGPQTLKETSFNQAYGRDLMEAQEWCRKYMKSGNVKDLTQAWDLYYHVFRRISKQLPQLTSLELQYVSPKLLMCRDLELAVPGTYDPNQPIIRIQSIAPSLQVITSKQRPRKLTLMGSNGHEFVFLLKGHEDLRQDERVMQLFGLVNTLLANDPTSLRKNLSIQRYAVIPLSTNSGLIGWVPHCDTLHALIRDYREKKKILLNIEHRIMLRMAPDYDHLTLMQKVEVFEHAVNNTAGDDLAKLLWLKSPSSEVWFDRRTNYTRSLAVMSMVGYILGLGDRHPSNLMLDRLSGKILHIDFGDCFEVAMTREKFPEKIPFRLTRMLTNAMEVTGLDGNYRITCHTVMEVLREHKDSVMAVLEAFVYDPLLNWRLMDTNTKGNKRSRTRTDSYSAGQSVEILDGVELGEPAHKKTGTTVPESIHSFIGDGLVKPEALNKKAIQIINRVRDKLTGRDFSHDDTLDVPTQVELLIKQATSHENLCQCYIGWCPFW
T2 sequence (O00329 with tags, fused parts or gaps limits assumed): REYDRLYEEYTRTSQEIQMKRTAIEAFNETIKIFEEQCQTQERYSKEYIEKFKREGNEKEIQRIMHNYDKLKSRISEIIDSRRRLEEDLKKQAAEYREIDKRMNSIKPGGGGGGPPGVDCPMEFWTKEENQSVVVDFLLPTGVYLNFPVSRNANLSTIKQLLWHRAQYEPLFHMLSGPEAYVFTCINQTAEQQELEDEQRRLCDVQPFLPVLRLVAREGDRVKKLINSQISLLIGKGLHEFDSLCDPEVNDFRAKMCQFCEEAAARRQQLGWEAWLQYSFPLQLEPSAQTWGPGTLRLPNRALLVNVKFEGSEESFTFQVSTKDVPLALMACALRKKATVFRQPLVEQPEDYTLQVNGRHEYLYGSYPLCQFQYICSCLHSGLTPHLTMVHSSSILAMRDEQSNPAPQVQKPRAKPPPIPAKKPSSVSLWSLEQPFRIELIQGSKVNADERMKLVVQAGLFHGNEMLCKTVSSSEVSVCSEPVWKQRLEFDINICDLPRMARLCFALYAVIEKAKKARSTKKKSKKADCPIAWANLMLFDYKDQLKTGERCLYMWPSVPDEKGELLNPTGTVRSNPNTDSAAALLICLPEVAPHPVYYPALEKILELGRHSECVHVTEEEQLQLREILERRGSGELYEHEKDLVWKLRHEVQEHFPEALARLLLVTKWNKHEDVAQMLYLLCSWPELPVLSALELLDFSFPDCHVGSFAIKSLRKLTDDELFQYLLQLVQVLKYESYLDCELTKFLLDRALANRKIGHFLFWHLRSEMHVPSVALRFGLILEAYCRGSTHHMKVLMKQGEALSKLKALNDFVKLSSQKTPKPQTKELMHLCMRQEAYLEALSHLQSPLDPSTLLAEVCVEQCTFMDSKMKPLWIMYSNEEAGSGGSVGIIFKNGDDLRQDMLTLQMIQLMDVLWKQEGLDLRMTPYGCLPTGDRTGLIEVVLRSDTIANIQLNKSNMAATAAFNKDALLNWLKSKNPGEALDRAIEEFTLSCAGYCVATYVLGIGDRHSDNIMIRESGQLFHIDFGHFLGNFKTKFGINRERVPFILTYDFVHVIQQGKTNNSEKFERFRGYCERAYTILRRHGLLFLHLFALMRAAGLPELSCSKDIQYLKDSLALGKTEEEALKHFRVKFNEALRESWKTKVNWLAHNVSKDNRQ

For `CCNc1ncc(-c2ccc3ncc4c(c3c2)n(-c2cn(C)nc2C)c(=O)n4C)cc1COCC` [Example 167, 1-(1,3-Dimethyl-1H-pyrazol-4-yl)-8-(5-ethoxymethyl-6-ethylamino-pyridin-3-yl)-3-methyl-1,3-dihydro-imidazo[4,5-c]quinolin-2-one], the half-inhibitory concentration (IC50) on PI3K alpha turned out to be 33 nM; at PI3K delta, 25 nM; on mTOR, 58 nM; in assay [1] it was 7 nM.

For `CCn1cc(-n2c(=O)n(C)c3cnc4ccc(-c5cnc(N)c(COC)c5)cc4c32)c(C)n1` [Example 168.2, 8-(6-Amino-5-methoxymethyl-pyridin-3-yl)-1-(1-ethyl-3-methyl-1H-pyrazol-4-yl)-3-methyl-1,3-dihydro-imidazo[4,5-c]quinolin-2-one], the IC50 at PI3K alpha was 23 nM; at PI3K delta, 11 nM; at mTOR, 41 nM; in assay [1] it was under 0.5 nM.

On to `Cc1ncc(-c2ccc3ncc4c(c3c2)n(-c2cn(C)nc2C)c(=O)n4C)cc1O` [Example 185.1, 1-(1,3-Dimethyl-1H-pyrazol-4-yl)-8-(5-hydroxy-6-methyl-pyridin-3-yl)-3-methyl-1,3-dihydro-imidazo[4,5-c]quinolin-2-one], for which the IC50 was 5 nM on PI3K alpha, 9 nM on PI3K delta, under 3 nM on mTOR and 35 nM in assay [1].

Regarding `Cc1ncc(-c2ccc3ncc4c(c3c2)n(-c2cn(C)nc2C)c(=O)n4C)cc1OC(CF)CF` [Example 189, 1-(1,3-Dimethyl-1H-pyrazol-4-yl)-8-[5-(2-fluoro-1-fluoromethyl-ethoxy)-6-methyl-pyridin-3-yl]-3-methyl-1,3-dihydro-imidazo[4,5-c]quinolin-2-one], the IC50 on PI3K alpha was determined as 4 nM; at PI3K delta it was 6 nM; at mTOR it was 17 nM; in assay [1], 1 nM.

For the compound `Cc1nn(C)cc1-n1c(=O)n(C)c2cnc3ccc(-c4cnc(CO)c(OC(C)C)c4)cc3c21` [Example 190, 1-(1,3-Dimethyl-1H-pyrazol-4-yl)-8-(6-hydroxymethyl-5-isopropoxy-pyridin-3-yl)-3-methyl-1,3-dihydro-imidazo[4,5-c]quinolin-2-one], the IC50 on PI3K alpha was 13 nM; at PI3K delta it was 11 nM; at mTOR, 37 nM; in assay [1] it was 2 nM.

For the compound `COCc1ncc(-c2ccc3ncc4c(c3c2)n(-c2cn(C)nc2C)c(=O)n4C)cc1OC(C)C` [Example 191.1, 1-(1,3-Dimethyl-1H-pyrazol-4-yl)-8-(5-isopropoxy-6-methoxymethyl-pyridin-3-yl)-3-methyl-1,3-dihydro-imidazo[4,5-c]quinolin-2-one], the IC50 was found to be 14 nM on PI3K alpha, 6 nM on PI3K delta, 25 nM on mTOR and 4 nM in assay [1].

Take `COc1cc(-c2ccc3ncc4c(c3c2)n(-c2cn(C)nc2C)c(=O)n4C)cnc1CO` [Example 193, 1-(1,3-Dimethyl-1H-pyrazol-4-yl)-8-(6-hydroxymethyl-5-methoxy-pyridin-3-yl)-3-methyl-1,3-dihydro-imidazo[4,5-c]quinolin-2-one]: the IC50 came out at 19 nM at PI3K alpha, 17 nM at PI3K delta, 21 nM on mTOR and 5.53 nM in assay [1].

In the case of `COCc1ncc(-c2ccc3ncc4c(c3c2)n(-c2cn(C)nc2C)c(=O)n4C)cc1OC` [Example 195.1, 1-(1,3-Dimethyl-1H-pyrazol-4-yl)-8-(5-methoxy-6-methoxymethyl-pyridin-3-yl)-3-methyl-1,3-dihydro-imidazo[4,5-c]quinolin-2-one], the IC50 at PI3K alpha was 18 nM; on PI3K delta it was 14 nM; on mTOR, 48 nM; in assay [1], 5 nM.

With `COCc1ncc(-c2ccc3ncc4c(c3c2)n(-c2cn(C(C)C)nc2C)c(=O)n4C)cc1OC` [Example 195.2, 1-(1-Isopropyl-3-methyl-1H-pyrazol-4-yl)-8-(5-methoxy-6-methoxymethyl-pyridin-3-yl)-3-methyl-1,3-dihydro-imidazo[4,5-c]quinolin-2-one], the IC50 was 37 nM on PI3K alpha, 35 nM on PI3K delta, 87 nM at mTOR and 31 nM in assay [1].
